Results as given in paper PMC4826920 (Evidence-based Complementary and Alternative Medicine : eCAM, 2016).

Assays:
[1] = target: T1, recombinant human MAO-B (hMAO-B) (Homo sapiens, UniProt P27338); assay: MAO-Glow luminescence assay, hMAO-B inhibition; assay type: biochemical
T1 construct: purchased Sigma-Aldrich
T1 sequence (P27338 1-520): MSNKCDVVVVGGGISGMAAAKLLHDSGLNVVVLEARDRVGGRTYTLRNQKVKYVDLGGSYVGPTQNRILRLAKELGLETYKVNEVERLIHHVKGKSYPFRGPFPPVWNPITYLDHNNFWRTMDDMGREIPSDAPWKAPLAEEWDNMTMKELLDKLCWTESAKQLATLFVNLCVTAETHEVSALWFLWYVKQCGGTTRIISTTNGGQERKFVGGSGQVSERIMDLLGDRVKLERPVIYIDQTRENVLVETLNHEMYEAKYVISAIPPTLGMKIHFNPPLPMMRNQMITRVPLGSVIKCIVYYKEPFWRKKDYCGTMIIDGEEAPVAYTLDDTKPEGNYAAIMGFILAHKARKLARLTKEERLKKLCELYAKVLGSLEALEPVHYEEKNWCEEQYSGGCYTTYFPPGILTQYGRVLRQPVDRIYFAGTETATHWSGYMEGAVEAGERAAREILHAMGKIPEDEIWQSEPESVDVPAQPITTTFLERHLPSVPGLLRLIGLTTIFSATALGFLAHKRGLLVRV
Procedure: (§1) IC50 values were determined by nonlinear regression best-fit model of normalized response with variable slope. The inhibitor constant (K i) values were obtained from the competitive inhibition model. Lineweaver-Burk plot was obtained from Michaelis-Menten data. Relative selectivity (RS) folds were defined by the ratio of hMAO-A IC50 to hMAO-B IC50. The significance of the difference between two groups was determined using an unpaired t-test, between the control and treatments using one-way ANOVA followed by Dunnett's multiple comparisons tests and between two sets of data using two-way ANOVA followed by Sidak's multiple comparisons test.

rat MAO = settings: cited from earlier work
[2] = target: T2, recombinant human MAO-A (hMAO-A) (Homo sapiens, UniProt P21397); assay: MAO-Glow luminescence assay, hMAO-A inhibition; assay type: biochemical; settings: up to 250 μM tested
T2 construct: purchased Sigma-Aldrich
T2 sequence (P21397 1-527): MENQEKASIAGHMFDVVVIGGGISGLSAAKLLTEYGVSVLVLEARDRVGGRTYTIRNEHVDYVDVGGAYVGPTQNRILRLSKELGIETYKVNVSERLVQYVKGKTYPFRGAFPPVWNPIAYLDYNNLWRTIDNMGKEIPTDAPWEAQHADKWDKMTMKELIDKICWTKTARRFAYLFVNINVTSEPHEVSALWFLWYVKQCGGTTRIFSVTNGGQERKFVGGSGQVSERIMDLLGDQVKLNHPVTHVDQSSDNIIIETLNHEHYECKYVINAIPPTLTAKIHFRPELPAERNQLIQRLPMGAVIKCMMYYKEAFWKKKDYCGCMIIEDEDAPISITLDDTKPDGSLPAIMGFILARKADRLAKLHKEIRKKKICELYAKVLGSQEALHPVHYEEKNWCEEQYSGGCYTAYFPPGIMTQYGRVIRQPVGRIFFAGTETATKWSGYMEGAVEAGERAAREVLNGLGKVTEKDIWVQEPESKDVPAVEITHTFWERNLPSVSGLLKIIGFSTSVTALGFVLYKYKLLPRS
Procedure: as §1, with “All analyses were performed by GraphPad Prism Software 6.02 (San Diego, CA, USA). IC50 values” for “IC50 values”

[3] = oral 54 mg/day, postmenopausal women; cited from earlier work
hMAO-A [4] = target: T3, hMAO-A (Homo sapiens, UniProt P21397); assay: Recovery by dilution assay, hMAO-A; assay type: biochemical
T3 construct: purchased Sigma-Aldrich
T3 sequence (P21397 1-527): T2 sequence (P21397 1-527)
Procedure: (§2) The microplates were then incubated for 30, 40, 50, and 60 min. RLDR was added, and luminescence was measured as mentioned above.

bovine plasma MAO = system: bovine plasma MAO; design: method as in PMID 1913999; settings: cited from earlier work
hMAO-A [5] = target: T3, hMAO-A; assay: Michaelis-Menten kinetics (mode of inhibition), hMAO-A; assay type: biochemical
Procedure: (§3) After 1.5 h of incubation, RLDR was added, and the luminescence signal was detected as mentioned in the hMAO-A and hMAO-B assay.
as §1, with “All analyses were performed by GraphPad Prism Software 6.02 (San Diego, CA, USA). IC50 values” for “IC50 values”

hMAO-B [6] = target: T4, hMAO-B (Homo sapiens, UniProt P27338); assay: Recovery by dilution assay, hMAO-B; assay type: biochemical
T4 construct: purchased Sigma-Aldrich
T4 sequence (P27338 1-520): T1 sequence (P27338 1-520)
Procedure: as §2

hMAO-B [7] = target: T4, hMAO-B; assay: Michaelis-Menten kinetics (mode of inhibition), hMAO-B; assay type: biochemical
Procedure: as §3, §1

[8] = 40 min preincubation at 10x IC50, 100-fold dilution, vs negative control
[9] = 40 min preincubation at 100x IC50, 100-fold dilution, vs negative control
[10] = up to 60 min at RT, maximum 100x IC50

SMILES | hMAO-B inhibitory effect ([1]; up to 250 μM tested) | Rat MAO inhibition (rat MAO) | hMAO-A inhibitory effect [2] | hMAO-B potency as % of DEP potency ([1]; from IC50 values) [%] | Steady-state level [3] | hMAO-A residual catalytic rate after dilution to 0.1x IC50 (hMAO-A [4]; [8]) [%] | hMAO-A residual catalytic rate after dilution to 1x IC50 (hMAO-A [4]; [9]) [%] | Reversibility of hMAO-A inhibition (hMAO-A [4]; [10]) | Bovine plasma MAO inhibition (bovine plasma MAO) | Change in Vmax, hMAO-A (hMAO-A [5]; GST 5, 10, 20 μM, p = 0.10) | Mode of hMAO-A inhibition (hMAO-A [5]; Lineweaver-Burk, LDS substrate) | hMAO-B residual catalytic rate after dilution to 0.1x IC50 (hMAO-B [6]; [8]) [%] | hMAO-B residual catalytic rate after dilution to 1x IC50 (hMAO-B [6]; [9]) [%] | Reversibility of hMAO-B inhibition (hMAO-B [6]; [10]) | Change in Vmax, hMAO-B (hMAO-B [7]; GST 5, 10, 20 μM, p = 0.44) | Mode of hMAO-B inhibition (hMAO-B [7]; Lineweaver-Burk, LDS substrate) | hMAO-B Ki lower than hMAO-A Ki (hMAO-B [7]; ratio of Ki values) [fold]
O=c1c(-c2ccc(O)cc2)coc2cc(O)ccc12 [DZ, Daidzein] | minor or partial inhibitory effect | no significant rat MAO inhibition | minor or partial inhibitory effect |  |  |  |  |  |  |  |  |  |  |  |  |  | 
O=c1c(-c2ccc(O)cc2)coc2cc(O)cc(O)c12 [GST, Genistein] |  |  |  | 1.4 | up to 1.00 μM | 86.8 | 42.3 | reversible inhibitor | weak bovine plasma MAO inhibition | no significant change | competitive | 86.1 | 47.1 | reversible inhibitor | no significant change | competitive | 3.0
